Numbers after ± are expanded uncertainties.
Legend:
[1] = refractive index (Na D-line) (dimensionless); settings: 293.15 K; 101.33 kPa; Liquid; Standard Abbe refractometry
[2] = Liquid; for mass density: 293.15 K, 101.33 kPa, Vibrating tube method; for vapor or sublimation pressure: 278.15 K, Closed cell (Static) method

For CC(C)CC(C)(C)C [2,2,4-trimethylpentane], the refractive index [1] was 1.391 ± 0.001 and the mass density [2] was 692 ± 1 kg/m3.
With CCCCCC [hexane] the refractive index [1] was 1.375 ± 0.001 and the mass density [2] was 660 ± 1 kg/m3.
In the case of CCCCCCCC [octane], the refractive index [1] is reported as 1.396 ± 0.001 and the mass density [2] is reported as 703 ± 1 kg/m3.
For O=C=O [carbon dioxide], the “vapor or sublimation pressure” value [2] was 3962 ± 18 kPa.
In the case of CC [ethane], the “vapor or sublimation pressure” value [2] is reported as 2699 ± 14 kPa.

From the NIST ThermoML archive (doi:10.1021/acs.jced.7b00613)
